Publication PMC7113773 (Antiviral Research, 2014)
Where a name gives a salt, the structure may show the parent alone. Read-outs that look alike come from different tables or passages of the source.

How the values were obtained:
A/Hong Kong/8/68 (H3N2) = experiment: organism not typed; format: cell-based, influenza A virus; settings: for EC50: read-out: EC50 for influenza virus A/Hong Kong/8/68
in vitro = settings: dog
[1] = tested on: A/Puerto Rico/8/34 (H1N1; PR8); experiment: organism not typed; format: cell-based, influenza A virus; settings: for EC50: read-out: EC50 for influenza virus A/Puerto Rico/8/34
[2] = tested on: pore-forming glycoprotein perforin; settings: previous study, ref Lena et al., 2008; cited from earlier work
B/Lee/40 = format: cell-based, influenza B virus; settings: for EC50: read-out: EC50 for influenza virus B/Lee/40
[3] = tested on: PR8 virus NP and HA protein; format: cell-based, influenza A virus; settings: 11, 33 and 100 μM, 24 h at 35 °C
MDCK cells = settings: for CC50: read-out: CC50 for MDCK cells, mock-infected MDCK cells, day 3, MTT
[4] = tested on: influenza A/H1N1, A/H3N2 and B viruses; experiment: CPE reduction assay / screen, stated for the three influenza viruses together; format: cell-based; settings: even at 100 μM

Structure (SMILES)	EC50 (A/Hong Kong/8/68 (H3N2); MDCK, 72 h) [µM]	CC50 (in vitro) [µM]	EC50 ([1]; MDCK, 72 h) [µM]	further results
NC12CC3CC(CC(C3)C1)C2 [Amantadine hydrochloride, reference compound]	2.8 ± 1.7	> 100	> 100	
Cc1cc2c(c(=O)[nH]1)C(=O)O/C2=C\c1c[nH]c2ccc(F)cc12 [Compound 15b, (Z)-1-((5-Fluoro-1H-indol-3-yl)methylene)-6-methylfuro[3,4-c]pyridine-3,4(1H,5 H)-dione]	26.8 ± 16.2	> 900	22.5 ± 10.8	
Cc1cc2c(c(=S)n1C)C(=O)O/C2=C\c1cc2cc(F)ccc2[nH]1 [Compound 15c, (Z)-1-((5-Fluoro-1H-indol-2-yl)methylene)-5,6-dimethyl-4-thioxo-4,5-dihydrofuro[3,4-c]pyridin-3(1H)-one]	> 100	> 900	> 100	
O=C1O/C(=C\c2c[nH]c3ccc(F)cc23)c2cc(-c3ccccc3)[nH]c(=S)c21 [Compound 15d, (Z)-1-((5-Fluoro-1H-indol-3-yl)methylene)-6-phenyl-4-thioxo-4,5-dihydrofuro[3,4-c]pyridin-3(1H)-one]	32.5 ± 13.3	> 900	63.8 ± 25.2	
Cc1cc2c(c(=S)[nH]1)C(=O)O/C2=C\c1c[nH]c2ccccc12 [Compound 15e, (Z)-1-((1H-Indol-3-yl)methylene)-6-methyl-4-thioxo-4,5-dihydrofuro[3,4-c]pyridi n-3(1H)-one]	> 100	> 900	> 100	inhibitory effect on cell lysis induced by perforin [2]: inactive
Cc1cc2c(c(=S)[nH]1)C(=O)O/C2=C\c1csc2ccccc12 [Compound 15f, (Z)-1-(Benzo[b]thiophen-3-ylmethylene)-6-methyl-4-thioxo-4,5-dihydrofuro[3,4-c]pyridin-3(1H)-one]	28.8 ± 6.2	> 900	26.1 ± 6	inhibitory effect on cell lysis induced by perforin [2]: active
Cc1cc2c(c(=S)[nH]1)C(=O)O/C2=C\c1sc2ccccc2c1C [Compound 15h, (Z)-6-Methyl-1-((3-methylbenzo[b]thiophen-2-yl)methylene)-4-thioxo-4,5-dihydrofuro[3,4-c]pyridin-3(1H)-one]	> 100	> 900	> 100	
Cc1c(/C=C2\OC(=O)c3c2cc(C)n(C)c3=S)sc2ccccc12 [Compound 15i, (Z)-5,6-Dimethyl-1-((3-methylbenzo[b]thiophen-2-yl)methylene)-4-thioxo-4,5-dihydrofuro[3,4-c]pyridin-3(1H)-one]	> 100	> 900	> 100	
Cc1cc2c(c(=S)[nH]1)C(=O)O/C2=C\c1ccsc1 [Compound 15j, (Z)-6-Methyl-1-(thiophen-3-ylmethylene)-4-thioxo-4,5-dihydrofuro[3,4-c]pyridi n-3(1H)-one]	6.2	> 900	5	inhibitory effect on cell lysis induced by perforin [2]: none; S.I. (selectivity index, CC50/EC50), B/Lee/40 (B/Lee/40): 5.9 ± 2.0 (>152.5); S.I. (selectivity index, CC50/EC50), A/Hong Kong/8/68 (A/Hong Kong/8/68 (H3N2)): 6.2 ± 3.1 (>145.2); viral protein level (NP, HA) in cells [3]: Reduction of the influenza viral protein level; toxicity to MDCK cells (MDCK cells; at 900 μM, uninfected MDCK cells): no toxicity; S.I. (selectivity index, CC50/EC50), A/Puerto Rico/8/34 [1]: 5.0 ± 1.0 (>180.0)
Cc1cc2c(c(=O)[nH]1)C(=O)O/C2=C\c1ccsc1 [Compound 15k, (Z)-6-Methyl-1-(thiophen-3-ylmethylene)furo[3,4-c]pyridine-3,4(1H,5H)-dione]	> 19.8	19.8 ± 8.2	> 19.8	
O=C1O/C(=C\c2ccsc2)c2cc(-c3ccccc3)[nH]c(=S)c21 [Compound 15l, (Z)-6-Penyl-1-(thiophen-3-ylmethylene)-4-thioxo-4,5-dihydrofuro[3,4-c]pyridin-3(1H)-one]				EC50 (B/Lee/40): > 100 µM; EC50 (A/Hong Kong/8/68 (H3N2)): 27.1 ± 5.8 µM; CC50 (MDCK cells): > 900 µM; EC50 [1]: > 100 µM
Cc1cc2c(c(=S)[nH]1)C(=O)O/C2=C\c1ccoc1 [Compound 15m, (Z)-1-(Fran-3-ylmethylene)-6-methyl-4-thioxo-4,5-dihydrofuro[3,4-c]pyridin-3(1H)-one]				inhibitory effect on cell lysis induced by perforin [2]: none; EC50 (B/Lee/40): 16.3 ± 8.5 µM; EC50 (A/Hong Kong/8/68 (H3N2)): 34.1 ± 10 µM; CC50 (MDCK cells): > 900 µM; EC50 [1]: 21.4 ± 12.6 µM
Cc1cc2c(c(=O)[nH]1)C(=O)O/C2=C\c1ccoc1 [Compound 15n, (Z)-1-(Furan-3-ylmethylene)-6-methylfuro[3,4-c]pyridine-3,4(1H,5H)-dione]	> 61.9	61.9 ± 10.7	> 61.9	
Cc1cc2c(c(=S)[nH]1)C(=O)O/C2=C\c1c[nH]cn1 [Compound 15o, (Z)-1-((1H-imidazol-4-yl)methylene)-6-methyl-4-thioxo-4,5-dihydrofuro[3,4-c]pyridin-3(1H)-one]	> 100	> 900	> 100	anti-influenza activity [4]: no anti-influenza activity
Cc1cc2c(c(=S)[nH]1)C(=O)O/C2=C\c1ncc[nH]1 [Compound 15p, (Z)-1-((1H-Imidazol-2-yl)methylene)-6-methyl-4-thioxo-4,5-dihydrofuro[3,4-c]pyridin-3(1H)-one]	> 100	> 900	> 100	anti-influenza activity [4]: no anti-influenza activity
O=C1O/C(=C\c2cccs2)c2cc(-c3ccccc3)[nH]c(=S)c21 [Compound 15r, (Z)-6-Phenyl-1-(thiophen-2-ylmethylene)-4-thioxo-4,5-dihydrofuro[3,4-c]pyridin-3(1H)-one]	15.1 ± 3.8	> 900	28.9 ± 12.6	
Cc1cc2c(c(=S)[nH]1)C(=O)O/C2=C\c1sccc1C [Compound 15s, (Z)-6-Methyl-1-((3-methylthiophen-2-yl)methylene)-4-thioxo-4,5-dihydrofuro[3,4-c]pyridin-3(1H)-one]	12.7	> 900	17.6	S.I. (selectivity index, CC50/EC50), B/Lee/40 (B/Lee/40): 14.0 ± 7.4 (>64.3); S.I. (selectivity index, CC50/EC50), A/Hong Kong/8/68 (A/Hong Kong/8/68 (H3N2)): 12.7 ± 8.2 (>70.9); S.I. (selectivity index, CC50/EC50), A/Puerto Rico/8/34 [1]: 17.6 ± 11.0 (>51.1)
Cc1cc2c(c(=S)[nH]1)C(=O)O/C2=C\c1ccc(C)s1 [Compound 15t, (Z)-6-Methyl-1-((5-methylthiophen-2-yl)methylene)-4-thioxo-4,5-dihydrofuro[3,4-c]pyridin-3(1H)-one]	12.2	> 900	8	inhibitory effect on cell lysis induced by perforin [2]: active; S.I. (selectivity index, CC50/EC50), B/Lee/40 (B/Lee/40): 9.6 ± 3.5 (>93.8); S.I. (selectivity index, CC50/EC50), A/Hong Kong/8/68 (A/Hong Kong/8/68 (H3N2)): 12.2 ± 2.9 (>73.8); S.I. (selectivity index, CC50/EC50), A/Puerto Rico/8/34 [1]: 8.0 ± 3.6 (>112.5)
CCc1ccc(/C=C2\OC(=O)c3c2cc(C)[nH]c3=S)s1 [Compound 15u, (Z)-1-((5-Ethylthiophen-2-yl)methylene)-6-methyl-4-thioxo-4,5-dihydrofuro[3,4-c]pyridin-3(1H)-one]	32.6 ± 10.2	> 900	31.7 ± 21.7	
Cc1cc2c(c(=S)[nH]1)C(=O)O/C2=C\c1cc(Br)cs1 [Compound 15v, (Z)-1-((4-Bromothiophen-2-yl)methylene)-6-methyl-4-thioxo-4,5-dihydrofuro[3,4-c]pyridin-3(1H)-one]	47.1 ± 18.7	> 900	63.7 ± 36	
Cc1cc2c(c(=S)[nH]1)C(=O)O/C2=C\c1ccc(Br)s1 [Compound 15w, (Z)-1-((5-Bromothiophen-2-yl)methylene)-6-methyl-4-thioxo-4,5-dihydrofuro[3,4-c]pyridin-3(1H)-one]	> 100	> 900	> 100	
Cc1ccsc1/C=C1\OC(=O)c2c1cc(C)n(C)c2=S [Compound 15x, (Z)-5,6-Dimethyl-1-((3-methylthiophen-2-yl)methylene)-4-thioxo-4,5-dihydrofuro[3,4-c]pyridin-3(1H)-one]	11.7	> 900	12.1	S.I. (selectivity index, CC50/EC50), B/Lee/40 (B/Lee/40): 8.0 ± 3.6 (>112.5); S.I. (selectivity index, CC50/EC50), A/Hong Kong/8/68 (A/Hong Kong/8/68 (H3N2)): 11.7 ± 2.7 (>76.9); S.I. (selectivity index, CC50/EC50), A/Puerto Rico/8/34 [1]: 12.1 ± 9.5 (>74.4)
NC(=O)c1ncn([C@@H]2O[C@H](CO)[C@@H](O)[C@H]2O)n1 [Ribavirin, ribavirin, reference compound]	20.2 ± 2.4		18.8 ± 4.3	
